Source: US12029738B2, “Antiproliferative compounds and methods of use thereof” (Celgene Corporation, priority 2017, dated 2024)
Read-outs that look alike come from different tables or passages of the source.

Columns and labels:
[1] = system: MM cell lines (NCI-H929, NCI-H929-1051, OPM2, OPM2-P10); assay: Cell proliferation assay (CTG, 120 h), four cell lines together; format: cell-based; conditions: Homo sapiens, range over four cell lines and both compounds, read-out: antiproliferative IC50 values (range)
Method: Cell Culture Materials: Human multiple myeloma cell lines were purchased from the vendors and cultured at 37° C. with 5% CO2 in the media as indicated in Table 1. Lenalidomide and pomalidomide resistant cell lines were obtained by methods as generally described previously (Lopez-Girona et al Leukemia 2012; 26(11): 2335). All cell lines were kept in log phase, and cell density and viability were monitored by trypan blue exclusion using the Vi-cell XR cell viability analyzer (Beckman Coulter, Brea, CA).
Preparation of Solutions of Test Article: Compounds were plated into black 384-well plates (Corning Inc.) to a final DMSO volume of 0.1% assuming a maximal volume of 50 μL. […]
Cell Proliferation Assays: The effect of compounds on the proliferation/viability of the hematological cell lines (Table 1), was assessed after 120 h incubation using CTG (Promega), according to manufacturer's instructions. […] At 120 h, 25 μL per well of CTG was dispensed by a Multidrop Combi Reagent Dispenser and adenosine triphosphate (ATP) release by viable cells was measured as relative luminescence units after 30 minutes using the Envision platform.
Results. […] Proliferation was assessed using the CellTitre-Glo© assay. […] The IC50 for inhibition of cell growth by the compounds was determined for each cell line using ActivityBase software.

K562 cells = assay: Coculture of compound-treated IL-2-activated PBMCs with K562 cells; format: cell-based, human; conditions: for IC50: Homo sapiens, K562, IL-2-activated PBMCs treated 72 h, 4 h coculture, read-out: IC50 of compound-treated PBMCs for direct K562 cell killing
Method: Coculture Experiments with Peripheral Blood Mononuclear Cells and K562 Cells. Methods: Human Peripheral Blood Mononuclear Cell (PBMC) Preparation: PBMCs isolated from healthy donors were cultured in RPMI 1640 medium with 10% FBS at a density of 1×10^6 cells/mL.
Cell Culture: K562 cells were kept in log phase, and cell density and viability were monitored by trypan blue exclusion using the Vi-CELL® XR cell viability analyzer (Beckman Coulter, Brea, CA).
Assay Procedures: Freshly isolated human PBMCs were cultured with recombinant IL-2 at concentration of 20 units/mL for 72 h. Peripheral blood mononuclear cells were then spun down and re-suspended in fresh RPMI complete medium to 2×10^6 cells/mL. Cells were then treated with DMSO or compounds at the indicated concentrations and incubated for an additional 72 h. The PBMCs were then washed twice in fresh RPMI complete medium prior to coculture. K562 cells were re-suspended to a cell density of 1×10^6/mL and stained with 1 μM CellTrace CFSE according to manufacturer's instructions. The labeled K562 cells were then seeded into a 96-well round bottom plate at 1×10^5 cells/well. Peripheral blood mononuclear cells were then transferred into the same 96-well plate at a 1:15 ratio, in triplicate and incubated at 37° C. for 4 h. Specific target cell lysis by PBMC cells was measured using Annexin V-fluorescein isothiocyanate (FITC) and propidium iodide (PI) according to manufacturer's instructions and samples were run on the FACS Array scan. Non-labeled K562 cells, CellTrace CFSE-labeled K562 cells, and Annexin V-FITC- and PI labeled untreated K562 cells were included in each assay as controls.

OPM2 = assay: PBMC and MM cell treatment assay (single culture vs co-culture); format: cell-based; conditions: Homo sapiens, OPM-2, OPM2, read-out: Immune-mediated Cell Killing IC50
Method: PBMC and MM Cell Treatment Assay Procedure. Ninety-six-well dishes were pre-coated with anti-CD3 antibody (OKT3, 3 μg/mL) and incubated at 4° C. overnight before the start of the experiment. Frozen PBMC donor cells were thawed at 37° C. for 2 minutes in RPMI medium with 10% FBS and cell counts and viability were measured on the Vi-CELL analyzer. Peripheral blood mononuclear cells were washed and diluted to 1×10^6 cells/mL and dispensed into the compound-treated plates in a total volume of 200 μL. Cells were incubated with compounds for 2 h before being transferred onto anti-CD3-coated plates and incubated for an additional 72 h. At the same time, MM cell lines (NCI-H929, H929-1051, OPM2, OPM2-P10) were diluted to a final concentration of 0.1×10^6 cells/mL and labeled with CellTrace CFSE according to manufacturer's instructions. Multiple myeloma cell lines were then dispensed into compound-treated plates at a total volume of 200 μL and incubated for 72 h. After 72 h, the PBMCs and MM cells were counted and transferred into a U-bottom 96-well plate at a final T:E ratio of 1:5. After 24 h coculture, specific target cell lysis by PBMC cells was measured using Annexin V-AF647 and 7-AAD according to manufacturer's instructions and samples were run on the Attune NxT Cytometer.
Because preincubation of immune cells with Compound 2 enhanced the targeting and lysing of MM cells, the effect of preincubation of MM cells with Compound 2 on their susceptibility to immune-mediated killing was also explored (FIG. 16A, FIG. 16B, FIG. 16C, and FIG. 16D, Table 12). Four MM cell lines and anti-CD3 antibody-activated PBMCs were separately preincubated with Compound 2, lenalidomide, or pomalidomide for 72 h. When anti-CD3 antibody-activated PBMCs and MM lines were both pretreated with Compound 2, lenalidomide, or pomalidomide, followed by co-culture, the effects on the PBMC-induced MM cell lysis were enhanced both in the potency and magnitude of the killing response. […] For the pomalidomide-resistant OPM2-P10 cell line, Compound 2 treatment of the MM cells enhanced the immune-mediated killing by ˜3000-fold (Table 12).

RPMI-8226 = assay: as above; format: cell-based; conditions: Homo sapiens, RPMI-8226, RPMI-8226, read-out: Immune-mediated Cell Killing IC50

Compound	IC50 [1] [nM]	IC50 (K562 cells) [nM]	IC50 (OPM2; Co-culture with PBMCs) [nM]	IC50 (OPM2; Single culture) [nM]	IC50 (RPMI-8226; Co-culture with PBMCs) [nM]	IC50 (RPMI-8226; Single culture) [nM]	potency relative to lenalidomide-treated PBMCs (K562 cells; 50% direct K562 cell killing) [fold]	potency relative to pomalidomide-treated PBMCs (K562 cells; 50% direct K562 cell killing) [fold]
N#Cc1ccc(N2CCN(Cc3ccc(COc4cccc5c4CN(C4CCC(=O)NC4=O)C5=O)cc3)CC2)c(F)c1 (racemic) [Compound 1, 4-(4-(4-(((2-(2,6-dioxopiperidin-3-yl)-1-oxoisoindolin-4-yl)oxy)methyl)benzyl)piperazin-1-yl)-3-fluorobenzonitrile]	0.07 to 19	–	–	–	–	–	–	–
Nc1cccc2c1C(=O)N(C1CCC(=O)NC1=O)C2=O (centres unmarked) [Pomalidomide, pomalidomide]	–	4	168	627	67.6	> 10000	–	–
N#Cc1ccc(N2CCN(Cc3ccc(COc4cccc5c4CN([C@H]4CCC(=O)NC4=O)C5=O)cc3)CC2)c(F)c1 [Compound 2, (S)-4-(4-(4-(((2-(2,6-dioxopiperidin-3-yl)-1-oxoisoindolin-4-yl)oxy)methyl)benzyl)piperazin-1-yl)-3-fluorobenzonitrile]	0.07 to 19	5900	0.0936	0.3	0.0839	13.4	~2600	~600
